Patent publication US4450269A, “Mono-5-substituted-3-chloro-4H-1,2,6-thiadiazin-4-one antifungal agents” (FMC Corporation, priority 1980, dated 1984)

Columns and labels:
Fusarium solani = experiment: Soil treatment, bean root rot; type: in vivo; settings: Fusarium solani, soil, 336 h; 150 ppm suspension, 3.8 mg active per pot; read-out: Percent Disease Control, seed/soil, bean root rot
Description: In a similar manner the soil around a bean seedling was drenched with a sufficient amount of 150 ppm suspension of test chemical to provide 3.8 mg active per pot. Twenty-four hours later the soil was inoculated with a suspension of minced mycelium of Fusarium solani. The inoculated plants were then placed in a greenhouse, evaluated after fourteen days, and percent control of root rot damage calculated. The results, reported in Table III, indicate only a few of the compounds tested are effective in treating Bean Root Rot but that these provide a high degree of control.

Cladosporium cucumerinum = experiment: Mycelial growth test; type: cell-based; settings: CC; for inhibition at 5 ppm / inhibition at 10 ppm / inhibition at 40 ppm / inhibition at 20 ppm: Cladosporium cucumerinum, read-out: Percent Fungus Growth Inhibition; for inhibition at 5 ppm / inhibition at 10 ppm / inhibition at 40 ppm: 72 h; for inhibition at 20 ppm: CC20, 72 h
From the text: |CC = Cladosporium cucumerinum

Pyricularia oryzae = experiment: whole plant or invertebrate; type: in vivo; settings: for pest or weed control at 150 ppm: Pyricularia oryzae, foliar, 24 h, read-out: Percent Disease Control, curative, rice blast, 150 ppm, 24 hours after inoculation
Cercospora beticola = experiment: whole plant or invertebrate; settings: in Beta vulgaris, foliar, 24 h, read-out: Percent Disease Control, curative, sugar beet leaf spot

Row | Compound | pest or weed control at 150 ppm, 3.8 mg/pot (Fusarium solani) [%] | inhibition at 5 ppm (Cladosporium cucumerinum) [%] | inhibition at 10 ppm (Cladosporium cucumerinum) [%] | inhibition at 40 ppm (Cladosporium cucumerinum; 40 ppm) [%] | inhibition at 20 ppm (Cladosporium cucumerinum) [%] | pest or weed control at 150 ppm (Pyricularia oryzae) [%] | pest or weed control at 150 ppm (Cercospora beticola) [%] | Percent Fungus Growth Inhibition (Cladosporium cucumerinum; 40 ppm, 72 hours) [%] | Percent Disease Control, curative, rice blast (Pyricularia oryzae; 150 ppm, 24 hours after inoculation) [%]
1 | O=c1c(Cl)nsnc1Oc1cc(Cl)cc(Cl)c1 [Compound 20, 3-chloro-5-(3,5-dichlorophenoxy)-4H--1,2,6-thiadiazin-4-one] | 75 | 100 | 100 | 100 | 100 | 0 | 95 |  | 
2 | Cc1cccc(Oc2nsnc(Cl)c2=O)c1 [Compound 21, 3-chloro-5-(3-methylphenoxy)-4H--1,2,6-thiadiazin-4-one] | 0 | 38 | 38 | 85 | 69 | 85 | 100 |  | 
3 | Cc1ccccc1Oc1nsnc(Cl)c1=O [Compound 22, 3-chloro-5-(2-methylphenoxy)-4H--1,2,6-thiadiazin-4-one] | 0 | 31 | 46 | 92 | 69 | 0 | 0 |  | 
4 | Cc1ccc(Oc2nsnc(Cl)c2=O)c(C)c1 [Compound 23, 3-chloro-5-(2,4-dimethylphenoxy)-4H--1,2,6-thiadiazin-4-one] | 0 | 27 | 38 | 100 | 81 | 0 | 100 |  | 
5 | Cc1cccc(C)c1Oc1nsnc(Cl)c1=O [Compound 24, 3-chloro-5-(2,6-dimethylphenoxy)-4H--1,2,6-thiadiazin-4-one] | 0 | 46 | 65 | 100 | 100 | 95 | 50 |  | 
6 | Cc1cc(C)cc(Oc2nsnc(Cl)c2=O)c1 [Compound 25, 3-chloro-5-(3,5-dimethylphenoxy)-4H--1,2,6-thiadiazin-4-one] | 0 | 27 | 50 | 100 | 77 | 0 | 50 |  | 
7 | Nc1ccc(Oc2nsnc(Cl)c2=O)cc1 [Compound 26, 5-(4-aminophenoxy)-3-chloro-4H--1,2,6-thiadiazin-4-one] | 0 | 37 | 49 |  | 49 |  | 95 | 77 | 0
8 | CNC(=O)Nc1ccc(Oc2nsnc(Cl)c2=O)cc1 [Compound 28, 3-chloro-5-[4-(3-methylureido)-phenoxy]-4H--1,2,6-thiadiazin-4-one] | 95 | 14 | 26 | 60 | 26 | 0 | 0 |  | 
9 | O=C(Nc1ccccc1)Nc1ccc(Oc2nsnc(Cl)c2=O)cc1 [Compound 29, 3-chloro-5-[4-(3-phenylureido)-phenoxy]-4H--1,2,6-thiadiazin-4-one] | 0 | 14 | 11 | 31 | 14 | 0 | 95 |  | 
10 | O=c1c(Cl)nsnc1Oc1c(Cl)cc(Cl)cc1Cl [Compound 30, 3-chloro-5-(2,4,6-trichlorophenoxy)-4H--1,2,6-thiadiazin-4-one] | 0 | 75 | 100 | 100 | 100 | 0 | 0 |  | 
11 | O=c1c(Cl)nsnc1Oc1c(Cl)c(Cl)c(Cl)c(Cl)c1Cl [Compound 31, 3-chloro-5-(pentachlorophenoxy)-4H--1,2,6-thiadiazine-4-one] | 0 | 54 | 57 | 69 | 60 | 0 | 0 |  | 
12 | O=c1c(Cl)nsnc1Oc1cccc2ccccc12 [Compound 32, 3-chloro-5(1-naphthoxy)-4H-1,2,6-thiadiazin-4-one] | 0 | 35 | 46 | 100 | 69 | 0 | 90 |  | 
13 | O=c1c(Cl)nsnc1Oc1ccccc1Br [Compound 34, 3-chloro-5-(2-bromophenoxy)-4H-1,2,6,-thiadiazin-4-one] | 0 | 6 | 28 | 86 | 61 | 0 | 0 |  | 
14 | CC(=O)Nc1cccc(Oc2nsnc(Cl)c2=O)c1 [Compound 42, 3-[(3-N--acetylamino)-phenoxy]-5-chloro-4H--1,2,6-thiadiazin-4-one] | 90 | 14 | 22 | 18 | 14 | 0 | 0 |  | 
15 | CC(=O)Nc1ccccc1Oc1nsnc(Cl)c1=O [Compound 43, 3-[(2-acetylamino)-phenoxy]-5-chloro-4H--1,2,6-thiadiazin-4-one] | 0 | 0 | 0 | 17 | 6 | 0 | 90 |  | 
16 | O=c1c(Cl)nsnc1Oc1cccc(C(F)(F)F)c1 [Compound 44, 3-chloro-5-[(3-trifluoromethyl)phenoxy]-4H--1,2,6-thiadiazin-4-one] | 90 | 36 | 56 | 100 | 92 | 0 | 0 |  | 
17 | O=C(O)Cc1ccccc1Oc1nsnc(Cl)c1=O [Compound 45, 3-(2-carboxymethylphenoxy)-5-chloro-4H--1,2,6-thiadiazin-4-one] | 90 | 0 | 0 | 0 | 12 | 0 | 90 |  | 
18 | CC(=O)c1ccc(Oc2nsnc(Cl)c2=O)cc1 [Compound 47, 3-(4-acetylphenoxy)-5-chloro-4H--1,2,6-thiadiazin-4-one] | 95 | 27 | 38 | 77 | 46 | 90 | 90 |  | 
19 | CC(=O)c1ccccc1Oc1nsnc(Cl)c1=O [Compound 49, 3-(2-acetylphenoxy)-5-chloro-4H--1,2,6-thiadiazin-4-one] | 0 | 3 | 17 | 64 | 33 | 0 | 0 |  | 
20 | O=C(O)c1ccc(Oc2nsnc(Cl)c2=O)cc1 [Compound 50, 3-(4-carboxyphenoxy)-5-chloro-4H--1,2,6-thiadiazin-4-one] | 0 | 58 | 54 | 100 | 73 | 90 | 50 |  | 
21 | Cc1cc(Oc2nsnc(Cl)c2=O)ccc1Cl [Compound 54, 3-chloro-5-(4-chloro-3-methylphenoxy)-4H--1,2,6-thiadiazin-4-one] | 0 | 14 | 28 | 50 | 33 | 0 | 0 |  | 
